Experiments:
Type in all cases: biochemical
FIH = biological target: T1, FIH (Homo sapiens, UniProt Q9NWT6); test: kinetic analyses of N-oxaloyl amino acid inhibitors of FIH; conditions: for IC50: inhibition of FIH, kinetic analyses
T1 construct: His6 (N, cleaved yes); made in house; host or cells: Escherichia coli BL21(DE3), pET28a(+)

[1] = test system: procollagen prolyl-hydroxylase; test: inhibition of procollagen prolyl-hydroxylase by N-oxaloylalanine enantiomers; conditions: S- versus R-enantiomer
Description: (§1) Such inhibitors may or may not chelate to an active site metal.

PHD isozymes = test: inhibition of PHD isozymes by N-oxaloylalanine enantiomers; conditions: S- versus R-enantiomer
Description: as §1

T1 sequence (Q9NWT6 whole entry): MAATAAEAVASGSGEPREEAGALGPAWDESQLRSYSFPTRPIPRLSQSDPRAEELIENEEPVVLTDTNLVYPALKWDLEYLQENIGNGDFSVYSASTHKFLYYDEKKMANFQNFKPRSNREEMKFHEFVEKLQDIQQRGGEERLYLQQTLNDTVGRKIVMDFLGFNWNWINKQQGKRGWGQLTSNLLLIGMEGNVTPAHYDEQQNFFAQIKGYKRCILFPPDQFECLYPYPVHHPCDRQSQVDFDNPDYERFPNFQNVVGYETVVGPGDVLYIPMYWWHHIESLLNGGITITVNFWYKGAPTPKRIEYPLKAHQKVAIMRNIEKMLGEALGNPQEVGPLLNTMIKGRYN

Row | SMILES | IC50 (FIH) [µM] | relative potency of enantiomers (reversed selectivity) [1] | relative potency of enantiomers (reversed selectivity) (PHD isozymes) | inhibition of FIH, in words (FIH; used as 2OG analogue in co-crystallisation)
1 | C[C@H](NC(=O)C(=O)O)C(=O)O [S-enantiomer, N-oxaloylalanine] | 2500 | more potent | more potent | –
2 | O=C(O)CNC(=O)C(=O)O [NOG, N-oxaloylglycine, reference compound] | – | – | – | FIH inhibitor
3 | C[C@H](NC(=O)C(=O)O)C(=O)O (single isomer, unassigned) [R-enantiomer, N-oxaloylalanine] | 400 | – | – | –
